Values of other authors as cited in patent publication US20240050950A1, “GRADIENT-BASED MICROFLUIDIC CIRCUIT, DEVICE, AND METHOD FOR PERFORMING AN ASSAY” (priority 2020, published 2024).
Structures can show the parent of a compound that is named as a salt. Where two headings read alike, the source gives them in different places. Bridge positions count the residues as written; N and C are the ends. Square brackets hold non-standard residues; d marks the D form. Peptide text beside a SMILES is read from it. * marks the point of attachment. Ileψ(thiazoline)Cys = CC[C@H](C)[C@H](N)C1=N[C@H](C(=O)*)CS1; dOrn = NCCC[C@@H](N)C(=O)O

Conditions: cited from earlier work
[1] = Table 1, antimicrobial agents/drugs

SMILES | Molar volume [1] [cm^3] | Molar volume (Table 2, anticancer drugs) [cm^3] | also measured
CC[C@H](C)[C@H](N)C1=N[C@H](C(=O)N[C@@H](CC(C)C)C(=O)N[C@H](CCC(=O)O)C(=O)N[C@H](C(=O)N[C@H]2CCCCNC(=O)[C@H](CC(N)=O)NC(=O)[C@@H](CC(=O)O)NC(=O)[C@H](Cc3cnc[nH]3)NC(=O)[C@@H](Cc3ccccc3)NC(=O)[C@H]([C@@H](C)CC)NC(=O)[C@@H](CCCN)NC2=O)[C@@H](C)CC)CS1 [Bacitracin] ({Ileψ(thiazoline)Cys}-L[dE]IK[dOrn]I[dF]H[dD]N; lactam 4-C) | 994.4 ± 7.0 |  | 
CO/C1=C\C(C)=C\[C@@H](C)[C@@H](O)[C@@H](C)C/C(C)=C/C=C/[C@H](OC)[C@@H]([C@@H](C)[C@@H](O)[C@H](C)[C@@]2(O)C[C@@H](O)[C@H](C)[C@@H](C(C)C)O2)OC1=O [Bafilomycin A1 (4730700), Bafilomycin A1] | 552.3 ± 5.0 |  | 
CO/C1=C\C(C)=C\[C@@H](C)[C@@H](O)[C@@H](C)C/C(C)=C/C=C/[C@H](OC)[C@@H]([C@@H](C)[C@@H](O)[C@H](C)[C@@]2(O)C[C@@H](OC(=O)/C=C/C(=O)NC3=C(O)CCC3=O)[C@H](C)[C@@H](C(C)C)O2)OC1=O [Bafilomycin B1] | 667.1 ± 5.0 |  | 
O=C(/C=C/c1cccc(S(=O)(=O)Nc2ccccc2)c1)NO [Beleodaq (Belinostat), Belinostat] |  | 222.9 ± 3.0 | 
CC(C)C[C@H](NC(=O)[C@@H](O)[C@H](N)Cc1ccccc1)C(=O)O [Bestatin (Ubenimex), Bestatin] | 257.5 ± 3.0 |  | 
C=C(c1ccc(C(=O)O)cc1)c1cc2c(cc1C)C(C)(C)CCC2(C)C [Bexarotene (Targretin), Bexarotene] |  | 334.2 ± 3.0 | 
Cn1cnc2c(F)c(Nc3ccc(Br)cc3F)c(C(=O)NOCCO)cc21 [Binimetinib] |  | 264.1 ± 7.0 | 
Oc1c(Cl)cc(Cl)cc1Sc1cc(Cl)cc(Cl)c1O [Bithionol] | 202.7 ± 5.0 |  | 
CN(CC[C@H](N)CC(=O)N[C@H]1C=C[C@H](n2ccc(N)nc2=O)O[C@@H]1C(=O)O)C(=N)N [Blasticidine (Blasticidin S), Blasticidin S] | 261.9 ± 7.0 |  | 
C[C@@H]1C[C@H](C)C[C@H](C)[C@@H](O)CC(=O)O[C@H]([C@@H]2CCC[C@H]2C(=O)O)C/C=C/C=C(/C#N)[C@H](O)[C@@H](C)C1 [Borrelidin] | 426.5 ± 5.0 |  | 
CC(C)C[C@H](NC(=O)[C@H](Cc1ccccc1)NC(=O)c1cnccn1)B(O)O [Bortezomib (Velcade), Bortezomib] |  | 316.5 ± 3.0 | 
COC(=O)N[C@@H](C)CNc1nccc(-c2cn(C(C)C)nc2-c2cc(Cl)cc(NS(C)(=O)=O)c2F)n1 [Braftovi (Encorafenib), Encorafenib] |  | 371.6 ± 7.0 | 
C[C@H]1CCC/C=C/[C@@H]2C[C@H](O)C[C@H]2[C@H](O)/C=C/C(=O)O1 [Brefeldin A] | 252.9 ± 3.0 |  | 
CS(=O)(=O)OCCCCOS(C)(=O)=O [Busulfan] |  | 182.3 ± 3.0 | 
CO[C@H]1C(=O)[C@]2(C)[C@@H](OC)C[C@H]3OC[C@@]3(OC(C)=O)[C@H]2[C@H](OC(=O)c2ccccc2)[C@]2(O)C[C@H](OC(=O)[C@H](O)[C@@H](NC(=O)OC(C)(C)C)c3ccccc3)C(C)=C1C2(C)C [Cabazitaxel] |  | 635.1 ± 5.0 | 
COc1cc(/C=N/O)nc(-c2ccccn2)c1 [Caerulomycin A] | 185.8 ± 7.0 |  | 
CCCCCOC(=O)Nc1nc(=O)n([C@@H]2O[C@H](C)[C@@H](O)[C@H]2O)cc1F [Capecitabine (Xeloda), Capecitabine] |  | 240.5 ± 7.0 | 
O=c1[nH]cc(F)c(=O)[nH]1 [Carac (Fluorouracil-Topical, Tolak), Fluorouracil] |  | 84.5 ± 5.0 | 
CC(C)C[C@H](NC(=O)[C@H](CCc1ccccc1)NC(=O)CN1CCOCC1)C(=O)N[C@@H](Cc1ccccc1)C(=O)N[C@@H](CC(C)C)C(=O)[C@@]1(C)CO1 [Carfilzomib (Kyprolis), Carfilzomib] |  | 619.5 ± 3.0 | 
CC[C@H](C)C[C@H](C)CCCCCCCCC(=O)N[C@H]1C[C@@H](O)[C@@H](NCCN)NC(=O)[C@@H]2[C@@H](O)CCN2C(=O)[C@H]([C@H](O)CCN)NC(=O)[C@H]([C@H](O)[C@@H](O)c2ccc(O)cc2)NC(=O)[C@@H]2C[C@@H](O)CN2C(=O)[C@H]([C@@H](C)O)NC1=O [Caspofungin] |  |  | Molar volume (Table 3, antifungal drugs and other molecules): 803.3 cm^3
N[C@@H](C(=O)N[C@@H]1C(=O)N2C(C(=O)O)=C(Cl)CS[C@H]12)c1ccccc1 [Cefaclor] | 226.4 ± 5.0 |  | 
CC1=C(C(=O)O)N2C(=O)[C@@H](NC(=O)[C@H](N)c3ccccc3)[C@H]2SC1 [Cefalexin] | 231.3 ± 5.0 |  | 
CO[C@@]1(NC(=O)CSCC#N)C(=O)N2C(C(=O)O)=C(CSc3nnnn3C)CS[C@@H]21 [Cefmetazole] | 268.3 ± 7.0 |  | 
NC(=O)c1cc[n+](CC2=C(C(=O)O)N3C(=O)[C@@H](NC(=O)[C@@H](c4ccccc4)S(=O)(=O)[O-])[C@H]3SC2)cc1 [Cefsulodin (Ulfaret), Cefsulodin] | 316.5 ± 7.0 |  | 

SMILES | Molar volume [1] [cm^3] | Molar volume (Table 2, anticancer drugs) [cm^3] | also measured
CC(C)(O/N=C(\C(=O)N[C@@H]1C(=O)N2C(C(=O)[O-])=C(C[n+]3ccccc3)CS[C@H]12)c1csc(N)n1)C(=O)O [Ceftazidime] | 330.2 ± 7.0 |  | 
CO/N=C(\C(=O)N[C@@H]1C(=O)N2C(C(=O)O)=C(CSc3nc(=O)c(=O)[nH]n3C)CS[C@H]12)c1csc(N)n1 [Ceftriaxone] | 281.7 ± 7.0 |  | 
C/C=C(\C)C(=O)N[C@@H](c1ccccc1)[C@@H](O)C(=O)O[C@H]1C[C@@]2(O)[C@@H](OC(=O)c3ccccc3)[C@@H]3[C@]4(OC(C)=O)CO[C@@H]4C[C@H](O)[C@@]3(C)C(=O)[C@H](OC(C)=O)C(=C1C)C2(C)C [Cephalomannine (NSC 318735), Cephalomannine] | 609.9 ± 5.0 |  | 
CC(=O)OCC1=C(C(=O)O)N2C(=O)[C@@H](NC(=O)Cc3cccs3)[C@H]2SC1 [Cephalothin (Cefalotin), Cephalothin] | 252.7 ± 5.0 |  | 
CC1=C(C(=O)O)N2C(=O)[C@@H](NC(=O)[C@H](N)C3=CCC=CC3)[C@H]2SC1 [Cephradine (Cefradine), Cephradine] | 237.2 ± 5.0 |  | 
Cc1cc(Nc2ncc(Cl)c(Nc3ccccc3S(=O)(=O)C(C)C)n2)c(OC(C)C)cc1C1CCNCC1 [Ceritinib (Zykadia), Ceritinib] |  | 445.9 ± 3.0 | 
COc1cccc2c1C(=O)c1c(O)c3c(c(O)c1C2=O)C[C@@](O)(C(C)=O)C[C@@H]3O[C@H]1C[C@H](N)[C@H](O)[C@H](C)O1 [Cerubidine (Daunorubicin Hydrochloride), Daunorubicin Hydrochloride] |  | 339.4 ± 5.0 | 
C/C=C/C/C=C/CCC(=O)[C@H]1O[C@H]1C(N)=O [Cerulenin] | 196.7 ± 3.0 |  | 
O=C(O)CCCc1ccc(N(CCCl)CCCl)cc1 [Chlorambucil] |  | 243.6 ± 3.0 | 
[H]/N=C(\N/C(=N/[H])NCCCCCCNC(=N)NC(=N)Nc1ccc(Cl)cc1)Nc1ccc(Cl)cc1 [Chlorhexidine] | 363.3 ± 7.0 |  | 
CO[C@@H]1[C@H](O)C[C@@H](O[C@@H]2C[C@H](Oc3cc4cc5c(c(O)c4c(O)c3C)C(=O)[C@@H](O[C@H]3C[C@@H](O[C@H]4C[C@@H](O[C@H]6C[C@](C)(O)[C@@H](OC(C)=O)[C@H](C)O6)[C@H](O)[C@@H](C)O4)[C@H](O)[C@@H](C)O3)[C@H]([C@H](OC)C(=O)[C@@H](O)[C@@H](C)O)C5)O[C@H](C)[C@@H]2OC(C)=O)O[C@@H]1C [Chromomycin A3] | 827.2 ± 5.0 |  | 
C=Cc1cc(OC)c2c(c1)c(=O)oc1c2cc(OC)c2c(O)ccc([C@H]3O[C@@H](C)[C@@H](O)[C@](C)(O)[C@@H]3O)c21 [Chrysomycin A (MFCD07370133), Chrysomycin A] | 361.7 ± 3.0 |  | 
COc1cc2c(oc(=O)c3cc(C)cc(OC)c32)c2c([C@@H]3O[C@H](C)[C@H](O)[C@@](C)(O)[C@H]3O)ccc(O)c12 [Chrysomycin B (MFCD07370132), Chrysomycin B] | 352.0 ± 3.0 |  | 
Nc1nc(Cl)nc2c1ncn2[C@H]1C[C@H](O)[C@@H](CO)O1 [Cladribine] |  | 140.1 ± 7.0 | 
CC[C@H]1OC(=O)[C@H](C)[C@@H](O[C@H]2C[C@@](C)(OC)[C@@H](O)[C@H](C)O2)[C@H](C)[C@@H](O[C@@H]2O[C@H](C)C[C@H](N(C)C)[C@H]2O)[C@](C)(OC)C[C@@H](C)C(=O)[C@H](C)[C@@H](O)[C@]1(C)O [Clarithromycin] | 631.9 ± 5.0 |  | 
Nc1nc(Cl)nc2c1ncn2[C@@H]1O[C@H](CO)[C@@H](O)[C@@H]1F [Clofarabine] |  | 143.0 ± 7.0 | 
CC(C)/N=c1\cc2n(-c3ccc(Cl)cc3)c3ccccc3nc-2cc1Nc1ccc(Cl)cc1 [Clofazimine] | 366.0 ± 7.0 |  | 
Clc1ccccc1C(c1ccccc1)(c1ccccc1)n1ccnc1 [Clotrimazole] | 302.7 ± 7.0 |  | 
O=C(c1ccc(F)c(F)c1Nc1ccc(I)cc1F)N1CC(O)([C@@H]2CCCCN2)C1 [Cobimetinib] |  | 311.3 ± 3.0 | 
C/C=C/[C@H]1O[C@@](O)([C@@H](C)[C@H](O)[C@H](C)[C@H]2OC(=O)/C(OC)=C/C(C)=C/[C@@H](C)[C@@H](O)[C@@H](CC)[C@@H](O)[C@H](C)C/C(C)=C/C=C/[C@@H]2OC)C[C@@H](O[C@H]2C[C@@H](O)[C@H](OC(N)=O)[C@@H](C)O2)[C@@H]1C [Concanamycin A (Folimycin), Concanamycin A] | 703.1 ± 7.0 |  | 
Nc1ncnc2c1ncn2[C@@H]1O[C@H](CO)C[C@H]1O [Cordycepin (3′-Deoxyadenosine), 3′-Deoxyadenosine] | 130.8 ± 7.0 |  | 
CO[C@H]1[C@H](OC(=O)c2ccc(C)[nH]2)[C@H](O)[C@@H](Oc2ccc3c(O)c(NC(=O)c4c[nH]c(C(=O)Nc5c(O)c6ccc(O[C@H]7OC(C)(C)[C@@H](OC)[C@H](OC(=O)c8ccc(C)[nH]8)[C@@H]7O)c(C)c6oc5=O)c4C)c(=O)oc3c2C)OC1(C)C [Coumermycin Al, Coumermycin A1] | 718.6 ± 5.0 |  | 
C[C@@H](Oc1cc(-c2cnn(C3CCNCC3)c2)cnc1N)c1c(Cl)ccc(F)c1Cl [Crizotinib (Xalkori), Crizotinib] |  | 305.2 ± 7.0 | 
